{
  "source": "patent US7592345B2",
  "about": "“Piperazine and [1,4]diazepan derivatives as NK antagonists” (Hoffmann-La Roche Inc., priority 2007, dated 2009)",
  "data": [
    {"biological_target": "T1, recombinant human NK3 receptor (Homo sapiens, UniProt P29371)", "T1 construct": "expressed in transfected cells; host or cells: HEK293 cells (transient expression), membranes", "T1 sequence (P29371 1-465)": "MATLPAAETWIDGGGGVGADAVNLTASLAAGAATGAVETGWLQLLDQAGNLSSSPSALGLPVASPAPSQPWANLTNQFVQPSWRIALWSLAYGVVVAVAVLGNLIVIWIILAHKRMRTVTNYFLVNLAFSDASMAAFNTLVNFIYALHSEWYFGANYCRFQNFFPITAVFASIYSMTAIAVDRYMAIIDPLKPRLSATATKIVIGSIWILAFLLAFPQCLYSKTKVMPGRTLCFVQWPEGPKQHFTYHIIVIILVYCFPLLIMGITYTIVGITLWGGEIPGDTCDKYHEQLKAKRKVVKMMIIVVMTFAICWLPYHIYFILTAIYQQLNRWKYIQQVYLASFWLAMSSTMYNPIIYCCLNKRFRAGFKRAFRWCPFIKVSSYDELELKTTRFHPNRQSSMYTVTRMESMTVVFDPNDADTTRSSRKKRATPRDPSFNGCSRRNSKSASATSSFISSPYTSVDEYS", "experiment": "[3H]SR142801 competition binding assay", "details": "[3H]SR142801, membranes from HEK293 cells transiently expressing recombinant human NK3 receptor; read-out: hNK3 Ki", "protocol": "[^3H]SR142801 Competition Binding Assay\nhNK3 receptor binding experiment were performed using [^3H]SR142801 (Catalog No. TRK1035, specific activity: 74.0 Ci/mmol, Amersham, GE Healthcare UK limited, Buckinghamshire, UK) and membrane isolated from HEK293 cells transiently expressing recombinant human NK3 receptor. After thawing, the membrane homogenates were centrifuged at 48,000×g for 10 min at 4° C., the pellets were resuspended in the 50 mM Tris-HCl, 4 mM MnCl2, 1 μM phosphoramidon, 0.1% BSA binding buffer at pH 7.4 to a final assay concentration of 5 μg protein/well. For inhibition experiments, membranes were incubated with [^3H]SR142801 at a concentration equal to KD value of radioligand and 10 concentrations of the inhibitory compound (0.0003-10 μM) (in a total reaction volume of 500 μl) for 75 min at room temperature (RT). At the end of the incubation, membranes were filtered onto unitfilter (96-well white microplate with bonded GF/C filter preincubated 1 h in 0.3% PEI+0.3% BSA, Packard BioScience, Meriden, Conn.) with a Filtermate 196 harvester (Packard BioScience) and washed 4 times with ice-cold 50 mM Tris-HCl, pH 7.4 buffer. Nonspecific binding was measured in the presence of 10 μM SB222200 for both radioligands. The radioactivity on the filter was counted (5 min) on a Packard Top-count microplate scintillation counter with quenching correction after addition of 45 μl of microscint 40 (Canberra Packard S. A., Zürich, Switzerland) and shaking for 1 h. Inhibition curves were fitted according to the Hill equation: y=100/(1+(x/IC50)^nH), where nH=slope factor using Excel-fit 4 software (Microsoft). IC50 values were derived from the inhibition curve and the affinity constant (Ki) values were calculated using the Cheng-Prussoff equation Ki=IC50/(1+[L]/KD) where [L] is the concentration of radioligand and KD is its dissociation constant at the receptor, derived from the saturation isotherm. All experiments were performed in duplicate and the mean±standard error (SEM) of the individual Ki values was calculated.", "units": {"Ki": "nM"}, "values": [
      {"compound": "CN(Cc1ccc(Cl)cc1)C(=O)C(C)(CCN1CCCN(S(C)(=O)=O)CC1)c1ccc(Cl)c(Cl)c1", "note": "(centres unmarked) [Example 97, N-(4-Chloro-benzyl)-2-(3,4-dichloro-phenyl)-4-(4-methanesulfonyl-[1,4]diazepan-1-yl)-2,N-dimethyl-butyramide]", "Ki": 29.9},
      {"compound": "COc1ccc(C(NC(=O)C(C)(CCN2CCN(S(C)(=O)=O)[C@H](C)C2)c2ccc(Cl)c(Cl)c2)C2CC2)cc1", "note": "(stereo partly drawn) [Example 32, N-[Cyclopropyl-(4-methoxy-phenyl)-methyl]-2-(3,4-dichloro-phenyl)-4-((R)-4-methanesulfonyl-3-methyl-piperazin-1-yl)-2-methyl-butyramide]", "Ki": 16.8},
      {"compound": "Cc1ccc(CN(C)C(=O)C(C)(CCN2CCCN(S(C)(=O)=O)CC2)c2ccc(Cl)c(Cl)c2)cc1", "note": "(centres unmarked) [Example 109, 2-(3,4-Dichloro-phenyl)-4-(4-methanesulfonyl-[1,4]diazepan-1-yl)-2,N-dimethyl-N-(4-methyl-benzyl)-butyramide]", "Ki": 33.5},
      {"compound": "C[C@H]1CN(CCC(C)(C(=O)NCc2ccc(C(F)(F)F)nc2)c2ccc(Cl)c(Cl)c2)CCN1S(C)(=O)=O", "note": "(stereo partly drawn) [Example 91, 2-(3,4-Dichloro-phenyl)-4-((S)-4-methanesulfonyl-3-methyl-piperazin-1-yl)-2-methyl-N-(6-trifluoromethyl-pyridin-3-ylmethyl)-butyramide]", "Ki": 906},
      {"compound": "C[C@H]1CN(CCC(C)(C(=O)NCc2cccc(OC(F)F)c2)c2ccc(Cl)c(Cl)c2)CCN1S(C)(=O)=O", "note": "(stereo partly drawn) [Example 73, 2-(3,4-Dichloro-phenyl)-N-(3-difluoromethoxy-benzyl)-4-((S)-4-methanesulfonyl-3-methyl-piperazin-1-yl)-2-methyl-butyramide]", "Ki": 300},
      {"compound": "C[C@H]1CN(CCC(C)(C(=O)N(C)Cc2ccc(Cl)c(C(F)(F)F)c2)c2ccc(Cl)c(Cl)c2)CCN1S(C)(=O)=O", "note": "(stereo partly drawn) [Example 69, N-(4-Chloro-3-trifluoromethyl-benzyl)-2-(3,4-dichloro-phenyl)-4-((S)-4-methanesulfonyl-3-methyl-piperazin-1-yl)-2,N-dimethyl-butyramide]", "Ki": 11.4},
      {"compound": "C[C@@H]1CN(CCC(C)(C(=O)NCc2cccc(OC(F)(F)F)c2)c2ccc(Cl)c(Cl)c2)CCN1S(C)(=O)=O", "note": "(stereo partly drawn) [Example 51, 2-(3,4-Dichloro-phenyl)-4-((R)-4-methanesulfonyl-3-methyl-piperazin-1-yl)-2-methyl-N-(3-trifluoromethoxy-benzyl)-butyramide]", "Ki": 14.6},
      {"compound": "CC(CCN1CCCN(S(C)(=O)=O)CC1)(C(=O)NCc1cccc(OC(F)F)c1)c1ccc(Cl)c(Cl)c1", "note": "(centres unmarked) [Example 115, 2-(3,4-Dichloro-phenyl)-N-(3-difluoromethoxy-benzyl)-4-(4-methanesulfonyl-[1,4]diazepan-1-yl)-2-methyl-butyramide]", "Ki": 183},
      {"compound": "CN(Cc1ccccc1Cl)C(=O)C(C)(CCN1CCCN(S(C)(=O)=O)CC1)c1ccc(Cl)c(Cl)c1", "note": "(centres unmarked) [Example 121, N-(2-Chloro-benzyl)-2-(3,4-dichloro-phenyl)-4-(4-methanesulfonyl-[1,4]diazepan-1-yl)-2,N-dimethyl-butyramide]", "Ki": 31.2},
      {"compound": "CN(Cc1ccc(C(F)(F)F)c(F)c1)C(=O)C(C)(CCN1CCCN(S(C)(=O)=O)CC1)c1ccc(Cl)c(Cl)c1", "note": "(centres unmarked) [Example 112, 2-(3,4-Dichloro-phenyl)-N-(3-fluoro-4-trifluoromethyl-benzyl)-4-(4-methanesulfonyl-[1,4]diazepan-1-yl)-2,N-dimethyl-butyramide]", "Ki": 16.2},
      {"compound": "C[C@@H]1CN(CCC(C)(C(=O)N(C)Cc2ccc(C(F)(F)F)c(F)c2)c2ccc(Cl)c(Cl)c2)CCN1S(C)(=O)=O", "note": "(stereo partly drawn) [Example 40, 2-(3,4-Dichloro-phenyl)-N-(3-fluoro-4-trifluoromethyl-benzyl)-4-((R)-4-methanesulfonyl-3-methyl-piperazin-1-yl)-2,N-dimethyl-butyramide]", "Ki": 16.7},
      {"compound": "C[C@H]1CN(CCC(C)(C(=O)N(C)Cc2ccc(-c3ccncc3)cc2)c2ccc(Cl)c(Cl)c2)CCN1S(C)(=O)=O", "note": "(stereo partly drawn) [Example 61, 2-(3,4-Dichloro-phenyl)-4-((S)-4-methanesulfonyl-3-methyl-piperazin-1-yl)-2,N-dimethyl-N-(4-pyridin-4-yl-benzyl)-butyramide]", "Ki": 247},
      {"compound": "CC(CCN1CCCN(S(C)(=O)=O)CC1)(C(=O)NCc1cc(F)ccc1C(F)(F)F)c1ccc(Cl)c(Cl)c1", "note": "(centres unmarked) [Example 116, 2-(3,4-Dichloro-phenyl)-N-(5-fluoro-2-trifluoromethyl-benzyl)-4-(4-methanesulfonyl-[1,4]diazepan-1-yl)-2-methyl-butyramide]", "Ki": 575},
      {"compound": "CC(CCN1CCN(S(C)(=O)=O)CC1)(C(=O)NCc1ccc(OC(F)F)cc1)c1ccc(Cl)c(Cl)c1", "note": "(centres unmarked) [Example 13, 2-(3,4-Dichloro-phenyl)-N-(4-difluoromethoxy-benzyl)-4-(4-methanesulfonyl-piperazin-1-yl)-2-methyl-butyramide]", "Ki": 326},
      {"compound": "C[C@H]1CN(CCC(C)(C(=O)NCc2cc(C(F)(F)F)cc(C(F)(F)F)c2)c2ccc(Cl)c(Cl)c2)CCN1S(C)(=O)=O", "note": "(stereo partly drawn) [Example 65, N-(3,5-Bis-trifluoromethyl-benzyl)-2-(3,4-dichloro-phenyl)-4-((S)-4-methanesulfonyl-3-methyl-piperazin-1-yl)-2-methyl-butyramide]", "Ki": 84.6},
      {"compound": "CN(Cc1ccc(Cl)cc1)C(=O)C(C)(CCN1CCN(S(C)(=O)=O)CC1)c1ccc(Cl)c(Cl)c1", "note": "(centres unmarked) [Example 12, N-(4-Chloro-benzyl)-2-(3,4-dichloro-phenyl)-4-(4-methanesulfonyl-piperazin-1-yl)-2,N-dimethyl-butyramide]", "Ki": 66.4},
      {"compound": "CC(CCN1CCN(S(C)(=O)=O)CC1)(C(=O)NCc1ccc(Cl)c(Cl)c1)c1ccc(Cl)c(Cl)c1", "note": "(centres unmarked) [Example 21, N-(3,4-Dichloro-benzyl)-2-(3,4-dichloro-phenyl)-4-(4-methanesulfonyl-piperazin-1-yl)-2-methyl-butyramide]", "Ki": 65.5},
      {"compound": "C[C@H]1CN(CCC(C)(C(=O)N(C)Cc2ccc(C(F)(F)F)nc2)c2ccc(Cl)c(Cl)c2)CCN1S(C)(=O)=O", "note": "(stereo partly drawn) [Example 90, 2-(3,4-Dichloro-phenyl)-4-((S)-4-methanesulfonyl-3-methyl-piperazin-1-yl)-2,N-dimethyl-N-(6-trifluoromethyl-pyridin-3-ylmethyl)-butyramide]", "Ki": 525},
      {"compound": "COc1cc(CN(C)C(=O)C(C)(CCN2CCN(S(C)(=O)=O)[C@H](C)C2)c2ccc(Cl)c(Cl)c2)ccc1OC(F)F", "note": "(stereo partly drawn) [Example 35, 2-(3,4-Dichloro-phenyl)-N-(4-difluoromethoxy-3-methoxy-benzyl)-4-((R)-4-methanesulfonyl-3-methyl-piperazin-1-yl)-2,N-dimethyl-butyramide]", "Ki": 216},
      {"compound": "COc1cc(CN(C)C(=O)C(C)(CCN2CCN(S(C)(=O)=O)[C@@H](C)C2)c2ccc(Cl)c(Cl)c2)ccc1OC(F)F", "note": "(stereo partly drawn) [Example 66, 2-(3,4-Dichloro-phenyl)-N-(4-difluoromethoxy-3-methoxy-benzyl)-4-((S)-4-methanesulfonyl-3-methyl-piperazin-1-yl)-2,N-dimethyl-butyramide]", "Ki": 277},
      {"compound": "C[C@H]1CN(CCC(C)(C(=O)N(C)Cc2cccc(F)c2)c2ccc(Cl)c(Cl)c2)CCN1S(C)(=O)=O", "note": "(stereo partly drawn) [Example 89, 2-(3,4-Dichloro-phenyl)-N-(3-fluoro-benzyl)-4-((S)-4-methanesulfonyl-3-methyl-piperazin-1-yl)-2,N-dimethyl-butyramide]", "Ki": 266},
      {"compound": "C[C@H]1CN(CCC(C)(C(=O)N(C)Cc2ccccc2Cl)c2ccc(Cl)c(Cl)c2)CCN1S(C)(=O)=O", "note": "(stereo partly drawn) [Example 79, N-(2-Chloro-benzyl)-2-(3,4-dichloro-phenyl)-4-((S)-4-methanesulfonyl-3-methyl-piperazin-1-yl)-2,N-dimethyl-butyramide]", "Ki": 168},
      {"compound": "C[C@@H]1CN(CCC(C)(C(=O)NCc2ccc3nccnc3c2)c2ccc(Cl)c(Cl)c2)CCN1S(C)(=O)=O", "note": "(stereo partly drawn) [Example 38, 2-(3,4-Dichloro-phenyl)-4-((R)-4-methanesulfonyl-3-methyl-piperazin-1-yl)-2-methyl-N-quinoxalin-6-ylmethyl-butyramide]", "Ki": 545}
    ]}
  ]
}
